Source: patent US10081624B2, “Heterocyclic compound” (Takeda Pharmaceutical Company Limited, priority 2014, dated 2018)

Tests used:
HDAC1 enzyme = molecular target: T1, HDAC1 enzyme (Homo sapiens, UniProt Q13547); assay: HDAC1 enzyme inhibitory assay (HDAC-Glo I/II Assay kit); assay type: biochemical; settings: 1 μM test compound; for inhibition at 1 µM: read-out: HDAC1 inhibitory rate (%) (1 μM)
T1 construct: prepared by transducing full length HDAC1 and HDAC6 genes into Sf-9 insect cells; GST; purchased SignalChem; host or cells: Sf-9 insect cells
Description: HDAC1 enzyme and HDAC6 enzyme each prepared by transducing full length HDAC1 and HDAC6 genes into Sf-9 insect cells and purifying by GST affinity column were purchased from SignalChem. Using these enzymes, HDAC1 and/or HDAC6 enzyme inhibitory activities of the compound of the present invention were evaluated. Enzymes were used after preserved at −70° C. HDAC1 or HDAC6 enzyme inhibitory activity of the compound of the present invention was measured using HDAC-Glo™ I/II Assay kit (Promega) according to the following experimental method. The test compound diluted with assay buffer (24 mM Tris-HCl (pH 7.5), 1 mM MgCl2, 0.35 mM KCl, 135 mM NaCl, 0.6 mM Glutathione, 0.01% Tween-20) was added to a 384-well plate by each 2 μL. Then, HDAC1 or HDAC6 enzyme solution diluted with assay buffer was added thereto by each 4 μL, and the plate was incubated at room temperature for 60 min. After incubated, HDAC substrate-Developer solution prepared according to Promega protocol attached to the assay kit was added to the 384-well plate by each 2 μL, and the enzyme reaction was started. After reacting at room temperature for 20 min, luminescence level was measured using plate reader Envision (PerkinElmer). The inhibitory activity of each compound was calculated as a relative activity value when luminescence level in wells without enzyme is considered as 100% inhibition.

HDAC6 enzyme = molecular target: T2, HDAC6 enzyme (Homo sapiens, UniProt Q9UBN7); assay: HDAC6 enzyme inhibitory assay (HDAC-Glo I/II Assay kit); assay type: biochemical; settings: 1 μM test compound; for inhibition at 1 µM: read-out: HDAC6 inhibitory rate (%) (1 μM)
T2 construct: prepared by transducing full length HDAC1 and HDAC6 genes into Sf-9 insect cells; GST; purchased SignalChem; host or cells: Sf-9 insect cells
T2 sequence (Q9UBN7 1-1215): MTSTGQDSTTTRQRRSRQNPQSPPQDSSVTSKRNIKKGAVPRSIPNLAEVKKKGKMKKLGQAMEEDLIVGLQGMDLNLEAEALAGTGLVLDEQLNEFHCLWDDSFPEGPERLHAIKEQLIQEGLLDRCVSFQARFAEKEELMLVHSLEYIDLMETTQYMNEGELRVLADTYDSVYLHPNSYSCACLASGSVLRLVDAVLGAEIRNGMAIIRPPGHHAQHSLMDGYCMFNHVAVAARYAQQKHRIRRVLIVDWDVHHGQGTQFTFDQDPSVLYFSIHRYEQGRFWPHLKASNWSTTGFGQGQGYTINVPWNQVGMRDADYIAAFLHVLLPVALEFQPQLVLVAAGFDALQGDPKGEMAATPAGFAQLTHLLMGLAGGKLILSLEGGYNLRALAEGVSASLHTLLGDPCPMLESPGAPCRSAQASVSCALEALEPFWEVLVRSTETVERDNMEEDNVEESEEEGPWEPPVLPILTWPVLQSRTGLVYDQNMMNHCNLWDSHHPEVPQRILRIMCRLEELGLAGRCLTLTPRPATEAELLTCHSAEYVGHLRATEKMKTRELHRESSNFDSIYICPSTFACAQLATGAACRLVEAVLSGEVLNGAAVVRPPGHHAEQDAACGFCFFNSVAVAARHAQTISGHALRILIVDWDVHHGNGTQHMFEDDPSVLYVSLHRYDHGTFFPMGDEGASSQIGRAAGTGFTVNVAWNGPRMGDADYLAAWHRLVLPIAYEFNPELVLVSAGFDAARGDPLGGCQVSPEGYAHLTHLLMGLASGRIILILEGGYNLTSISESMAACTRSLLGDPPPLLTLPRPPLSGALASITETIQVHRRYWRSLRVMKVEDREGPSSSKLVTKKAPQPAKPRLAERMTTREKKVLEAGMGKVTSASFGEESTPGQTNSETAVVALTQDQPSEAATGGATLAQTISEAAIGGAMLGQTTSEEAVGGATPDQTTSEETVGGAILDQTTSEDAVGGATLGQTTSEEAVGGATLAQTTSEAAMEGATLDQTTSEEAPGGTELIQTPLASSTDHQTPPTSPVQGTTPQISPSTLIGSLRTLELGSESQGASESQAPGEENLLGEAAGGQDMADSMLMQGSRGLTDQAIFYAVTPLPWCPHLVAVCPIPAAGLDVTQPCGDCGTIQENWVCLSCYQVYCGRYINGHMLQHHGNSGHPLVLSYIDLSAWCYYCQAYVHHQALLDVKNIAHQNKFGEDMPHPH
Procedure, shortened: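 Relative activity was calculated from luminescence, with wells lacking enzyme defined as 100% inhibition. The enzymes were full-length HDAC1 or HDAC6 from Sf-9 cells, preincubated with test compound for 60 min before a 20-min substrate-developer reaction at room temperature.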

T1 sequence (Q13547 whole entry): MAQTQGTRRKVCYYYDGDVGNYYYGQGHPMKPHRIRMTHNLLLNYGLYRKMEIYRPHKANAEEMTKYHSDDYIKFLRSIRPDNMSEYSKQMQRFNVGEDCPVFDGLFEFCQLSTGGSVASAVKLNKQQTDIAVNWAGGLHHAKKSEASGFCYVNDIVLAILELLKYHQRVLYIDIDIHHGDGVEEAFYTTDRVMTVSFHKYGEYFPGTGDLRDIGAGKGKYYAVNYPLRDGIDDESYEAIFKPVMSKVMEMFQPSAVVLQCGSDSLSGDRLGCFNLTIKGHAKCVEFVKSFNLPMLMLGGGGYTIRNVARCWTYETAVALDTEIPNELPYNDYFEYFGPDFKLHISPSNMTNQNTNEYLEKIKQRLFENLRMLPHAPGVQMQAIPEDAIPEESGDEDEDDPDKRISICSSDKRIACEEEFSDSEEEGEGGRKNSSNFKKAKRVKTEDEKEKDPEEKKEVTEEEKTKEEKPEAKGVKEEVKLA

| HDAC1 inhibitory rate (%) (1 μM) (HDAC1 enzyme) | HDAC6 inhibitory rate (%) (1 μM) (HDAC6 enzyme) | inhibition at 1 µM (HDAC1 enzyme) [%] | inhibition at 1 µM (HDAC6 enzyme) [%] | Structure (SMILES) |
| --- | --- | --- | --- | --- |
| 21 | 105 |  |  | O=C(NC[C@H]1COCCN1C(=O)c1ccccc1)c1ccc(-c2noc(C(F)(F)F)n2)cc1 [Example 36, N-(((3S)-4-benzoylmorpholin-3-yl)methyl)-4-(5-(trifluoromethyl)-1,2,4-oxadiazol-3-yl)benzamide] |
|  |  | 14 | 84 | O=C(NC[C@H]1COCCN1C(=O)N1CCC[C@H]1CO)c1ccc(-c2noc(C(F)(F)F)n2)cc1 [Example 107, N-(((3S)-4-(((2S)-2-(hydroxymethyl)pyrrolidin-1-yl)carbonyl)morpholin-3-yl)methyl)-4-(5-(trifluoromethyl)-1,2,4-oxadiazol-3-yl)benzamide] |
|  |  | 12 | 96 | O=C(NC[C@@H]1COCCN1C(=O)C1CCCC1)c1ccc(-c2noc(C(F)(F)F)n2)cc1 [Example 149, N-(((3R)-4-(cyclopentylcarbonyl)morpholin-3-yl)methyl)-4-(5-(trifluoromethyl)-1,2,4-oxadiazol-3-yl)benzamide] |
|  |  | 25 | 100 | Cc1oncc1C(=O)N1CCOC[C@@H]1CNC(=O)c1ccc(-c2noc(C(F)(F)F)n2)s1 [Example 259, N-(((3S)-4-((5-methyl-1,2-oxazol-4-yl)carbonyl)morpholin-3-yl)methyl)-5-(5-(trifluoromethyl)-1,2,4-oxadiazol-3-yl)thiophene-2-carboxamide] |
|  |  | 5 | 93 | Cn1nccc1CC(=O)N1CCOC[C@@H]1CNC(=O)c1ccc(-c2noc(C(F)(F)F)n2)cc1 [Example 297, N-(((3S)-4-((1-methyl-1H-pyrazol-5-yl)acetyl)morpholin-3-yl)methyl)-4-(5-(trifluoromethyl)-1,2,4-oxadiazol-3-yl)benzamide] |
|  |  | 21 | 99 | O=C(NCC1COCCN1C(=O)c1ccc(F)cc1)c1ccc(-c2noc(C(F)(F)F)n2)cc1 (centres unmarked) [Example 5, N-((4-(4-fluorobenzoyl)morpholin-3-yl)methyl)-4-(5-(trifluoromethyl)-1,2,4-oxadiazol-3-yl)benzamide] |
|  |  | 7 | 89 | O=C(NCC1COCCN1C(=O)c1cccc(-c2ccccc2)c1)c1ccc(-c2noc(C(F)(F)F)n2)s1 (centres unmarked) [Example 222, N-((4-(biphenyl-3-ylcarbonyl)morpholin-3-yl)methyl)-5-(5-(trifluoromethyl)-1,2,4-oxadiazol-3-yl)thiophene-2-carboxamide] |
|  |  | 59 | 99 | O=C(NC[C@H]1COCCN1C(=O)C1C2CC3CC(C2)CC1C3)c1ccc(-c2noc(C(F)(F)F)n2)cn1 (some centres unmarked) [Example 205, N-((4-(adamantan-2-ylcarbonyl)morpholin-3-yl)methy)-5-(5-(trifluoromethyl)-1,2,4-oxadiazol-3-yl)pyridine-2-carboxamide] |
|  |  | 18 | 97 | O=C(NC[C@H]1COCCN1C(=O)C1CCc2ccccc2O1)c1ccc(-c2noc(C(F)(F)F)n2)cc1 (stereo partly drawn) [Example 52, N-(((3S)-4-(3,4-dihydro-2H-chromen-2-ylcarbonyl)morpholin-3-yl)methyl)-4-(5-(trifluoromethyl)-1,2,4-oxadiazol-3-yl)benzamide] |
|  |  | 46 | 100 | Cc1oc2ccccc2c1C(=O)N1CCOC[C@@H]1CNC(=O)c1ccc(-c2noc(C(F)(F)F)n2)cc1 [Example 308, N-(((3S)-4-((2-methyl-1-benzofuran-3-yl)carbonyl)morpholin-3-yl)methyl)-4-(5-(trifluoromethyl)-1,2,4-oxadiazol-3-yl)benzamide] |
|  |  | 5 | 99 | COC[C@H]1CCCN1C(=O)N1CCOC[C@@H]1CNC(=O)c1ccc(-c2noc(C(F)(F)F)n2)cc1 [Example 272, N-(((3S)-4-(((2R)-2-(methoxymethyl)pyrrolidin-1-yl)carbonyl)morpholin-3-yl)methyl)-4-(5-(trifluoromethyl)-1,2,4-oxadiazol-3-yl)benzamide] |
|  |  | 6 | 90 | O=C(NC[C@H]1COCCN1C(=O)N1CCC(CO)CC1)c1ccc(-c2noc(C(F)(F)F)n2)cc1 [Example 278, N-(((3S)-4-((4-(hydroxymethyl)piperidin-1-yl)carbonyl)morpholin-3-yl)methyl)-4-(5-(trifluoromethyl)-1,2,4-oxadiazol-3-yl)benzamide] |
|  |  | 18 | 98 | O=C(NCC1COCCN1C(=O)c1ccnc(C2CC2)c1)c1ccc(-c2noc(C(F)(F)F)n2)cc1 (centres unmarked) [Example 34, N-((4-(2-cyclopropylisonicotinoyl)morpholin-3-yl)methyl)-4-(5-(trifluoromethyl)-1,2,4-oxadiazol-3-yl)benzamide] |
|  |  | 22 | 101 | Cc1oncc1C(=O)N1CCOC[C@@H]1CNC(=O)c1ccc(-c2noc(C(F)(F)F)n2)cc1 [Example 59, N-(((3S)-4-((5-methyl-1,2-oxazol-4-yl)carbonyl)morpholin-3-yl)methyl)-4-(5-(trifluoromethyl)-1,2,4-oxadiazol-3-yl)benzamide] |
|  | 98 | 13 |  | Cc1cc(C(=O)N2CCOC[C@@H]2CNC(=O)c2ccc(-c3noc(C(F)(F)F)n3)cc2)ccn1 [Example 49, N-(((3S)-4-(2-methylisonicotinoyl)morpholin-3-yl)methyl)-4-(5-(trifluoromethyl)-1,2,4-oxadiazol-3-yl)benzamide] |
|  |  | 18 | 97 | O=C(NCC1Cc2ccccc2CN1C(=O)c1ccccc1)c1ccc(-c2noc(C(F)(F)F)n2)cc1 (centres unmarked) [Example 175, N-((2-benzoyl-1,2,3,4-tetrahydroisoquinolin-3-yl)methyl)-4-(5-(trifluoromethyl)-1,2,4-oxadiazol-3-yl)benzamide] |
|  |  | 22 | 98 | O=C(NCC1COCCN1C(=O)c1ccccc1)c1ccc(-c2noc(C(F)(F)F)n2)cc1 (centres unmarked) [Example 1, N-((4-benzoylmorpholin-3-yl)methyl)-4-(5-(trifluoromethyl)-1,2,4-oxadiazol-3-yl)benzamide] |
|  |  | 30 | 99 | Cc1nocc1C(=O)N1CCOCC1CNC(=O)c1ccc(-c2noc(C(F)(F)F)n2)cc1 (stereo in doubt) [Example 94, N-(((3S)-4-((3-methyl-1,2-oxazol-4-yl)carbonyl)morpholin-3-yl)methyl)-4-(5-(trifluoromethyl)-1,2,4-oxadiazol-3-yl)benzamide] |
|  |  | 15 | 98 | O=C(NC[C@H]1COCCN1C(=O)C1CCCCC1)c1ccc(-c2noc(C(F)(F)F)n2)cc1 [Example 80, N-(((3S)-4-(cyclohexylcarbonyl)morpholin-3-yl)methyl)-4-(5-(trifluoromethyl)-1,2,4-oxadiazol-3-yl)benzamide] |
